Patent US11053204B2, “Pyrimidinyloxy benzene derivatives as herbicides” (FMC Corporation, priority 2015, dated 2021)

Columns and labels:
Type in all cases: in vivo
[1] = tested on: barnyardgrass (Echinochloa crus-galli); experiment: Test A preemergence, visual injury rating; details: 0 to 100 scale (0 no effect, 100 complete control)
Method in brief: (§1)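 Pre- and postemergence greenhouse screen. Soil: loam + sand. Spray carrier: solvent mixture, non-phytotoxic, with surfactant. Post timing at 1–2 leaves, height 2–10 cm. Readout: visual injury on a 0–100 scale roughly 10 days after application, untreated plants as reference.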

[2] = tested on: Italian ryegrass (Lolium multiflorum); experiment: Test A preemergence, visual injury rating; details: 0 to 100 scale (0 no effect, 100 complete control)
Method in brief: as §1

kochia (Kochia scoparia) = experiment: Test A preemergence, visual injury rating; details: 0 to 100 scale (0 no effect, 100 complete control)
Method in brief: as §1

[3] = tested on: ragweed (common ragweed, Ambrosia elatior); experiment: Test A preemergence, visual injury rating; details: 0 to 100 scale (0 no effect, 100 complete control)
Method in brief: as §1

[4] = tested on: pigweed (Amaranthus retroflexus); experiment: Test A preemergence, visual injury rating; details: 0 to 100 scale (0 no effect, 100 complete control)
Method in brief: as §1

[5] = tested on: giant foxtail (Setaria faberii); experiment: Test A preemergence, visual injury rating; details: 0 to 100 scale (0 no effect, 100 complete control)
Method in brief: as §1

[6] = tested on: ducksalad (Heteranthera limosa); experiment: Test B flooded paddy test, plant response rating; details: 250 g ai/ha; Flood; scale of 0 to 100 where 0 is no effect and 100 is complete control; 13 to 15 days
Method in brief: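 Compound was added to standing water 3 cm above soil, flood maintained, and plants held in a greenhouse before visual scoring against controls at 13 to 15 days.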

Row | SMILES | Barnyardgrass plant response rating ([1]; 125 g ai/ha) | Barnyardgrass plant response rating ([1]; 500 g ai/ha) | Ryegrass, Italian plant response rating ([2]; 125 g ai/ha) | Ryegrass, Italian plant response rating ([2]; 500 g ai/ha) | Kochia plant response rating (kochia (Kochia scoparia); 125 g ai/ha) | Kochia plant response rating (kochia (Kochia scoparia); 500 g ai/ha) | Ragweed plant response rating ([3]; 125 g ai/ha) | Ragweed plant response rating ([3]; 500 g ai/ha) | Pigweed plant response rating ([4]; 125 g ai/ha) | Pigweed plant response rating ([4]; 500 g ai/ha) | Foxtail, Giant plant response rating ([5]; 125 g ai/ha) | Foxtail, Giant plant response rating ([5]; 500 g ai/ha) | Plant response rating, Ducksalad [6]
1 | N#Cc1cccc(Oc2ncc(Cl)cn2)c1C(=O)OCCC(F)(F)F [Compound 30] | 0 | 0 | 0 | 0 | 90 | 100 | 0 | 0 | 100 | 100 | 100 | 100 | 40
2 | C=C(Br)COC(=O)c1c(Br)cccc1Oc1ncc(Cl)cn1 [Compound 61] | 50 | 100 | 30 | 80 | 90 | 100 | 0 | 20 | 100 | 100 | 100 | 100 | 100
